Assay: relative permittivity at zero frequency (dimensionless)
Conditions: Parallel plate capacitor

COC [dimethyl ether]
Conditions | relative permittivity at zero frequency
303.7 K, 180 kPa, Gas | 1.016
303.7 K, 320 kPa, Gas | 1.025
303.7 K, 440 kPa, Gas | 1.032
303.7 K, 460 kPa, Gas | 1.034
303.7 K, 500 kPa, Gas | 1.037
303.7 K, 530 kPa, Gas | 1.039
303.7 K, 660 kPa, Gas | 1.084
303.7 K, 6300 kPa, Liquid | 5.34
303.7 K, 8000 kPa, Liquid | 5.37
303.7 K, 10200 kPa, Liquid | 5.41
303.7 K, 12200 kPa, Liquid | 5.44
303.7 K, 14200 kPa, Liquid | 5.47
303.7 K, 16300 kPa, Liquid | 5.5
303.7 K, 17600 kPa, Liquid | 5.52
303.7 K, 20200 kPa, Liquid | 5.56
303.7 K, 22400 kPa, Liquid | 5.59
303.7 K, 24200 kPa, Liquid | 5.62
303.7 K, 25900 kPa, Liquid | 5.64
303.7 K, 27500 kPa, Liquid | 5.66
313.3 K, 80 kPa, Gas | 1.011
313.3 K, 150 kPa, Gas | 1.015
313.3 K, 460 kPa, Gas | 1.034
313.3 K, 510 kPa, Gas | 1.037
313.3 K, 560 kPa, Gas | 1.041
313.3 K, 770 kPa, Gas | 1.057
313.3 K, 870 kPa, Gas | 1.142
313.3 K, 2300 kPa, Liquid | 5
313.3 K, 4400 kPa, Liquid | 5.05
313.3 K, 6300 kPa, Liquid | 5.1
313.3 K, 8300 kPa, Liquid | 5.14
313.3 K, 10200 kPa, Liquid | 5.16
313.3 K, 12200 kPa, Liquid | 5.2
313.3 K, 14300 kPa, Liquid | 5.24
313.3 K, 16300 kPa, Liquid | 5.27
313.3 K, 18000 kPa, Liquid | 5.3
313.3 K, 20400 kPa, Liquid | 5.33
313.3 K, 22000 kPa, Liquid | 5.35
313.3 K, 24300 kPa, Liquid | 5.39
313.3 K, 26100 kPa, Liquid | 5.41
313.3 K, 28200 kPa, Liquid | 5.44
313.3 K, 29600 kPa, Liquid | 5.46
323 K, 50 kPa, Gas | 1.01
323 K, 100 kPa, Gas | 1.012
323 K, 240 kPa, Gas | 1.02
323 K, 450 kPa, Gas | 1.033
323 K, 530 kPa, Gas | 1.038
323 K, 700 kPa, Gas | 1.049
323 K, 1080 kPa, Gas | 1.118
323 K, 1300 kPa, Liquid | 4.72
323 K, 2200 kPa, Liquid | 4.74
323 K, 4200 kPa, Liquid | 4.8
323 K, 6200 kPa, Liquid | 4.85
323 K, 8200 kPa, Liquid | 4.89
323 K, 10400 kPa, Liquid | 4.93
323 K, 12400 kPa, Liquid | 4.97
323 K, 14200 kPa, Liquid | 5.01
323 K, 16400 kPa, Liquid | 5.04
323 K, 18300 kPa, Liquid | 5.07
323 K, 19800 kPa, Liquid | 5.1
323 K, 22000 kPa, Liquid | 5.13
323 K, 24000 kPa, Liquid | 5.17
323 K, 26300 kPa, Liquid | 5.2
323 K, 27900 kPa, Liquid | 5.23
323 K, 29400 kPa, Liquid | 5.25
323 K, 31200 kPa, Liquid | 5.27
333.4 K, 430 kPa, Gas | 1.03
333.4 K, 460 kPa, Gas | 1.031
333.4 K, 540 kPa, Gas | 1.036
333.4 K, 710 kPa, Gas | 1.047
333.4 K, 850 kPa, Gas | 1.057
333.4 K, 1050 kPa, Gas | 1.071
333.4 K, 1380 kPa, Gas | 1.122
333.4 K, 2200 kPa, Liquid | 4.46
333.4 K, 4300 kPa, Liquid | 4.52
333.4 K, 6400 kPa, Liquid | 4.58
333.4 K, 8300 kPa, Liquid | 4.62
333.4 K, 10200 kPa, Liquid | 4.67
333.4 K, 12200 kPa, Liquid | 4.71
333.4 K, 14000 kPa, Liquid | 4.74
333.4 K, 15800 kPa, Liquid | 4.78
333.4 K, 17200 kPa, Liquid | 4.81
333.4 K, 22000 kPa, Liquid | 4.89
333.4 K, 23800 kPa, Liquid | 4.92
333.4 K, 25800 kPa, Liquid | 4.95
333.4 K, 27600 kPa, Liquid | 4.97
333.4 K, 29400 kPa, Liquid | 4.99
343.2 K, 60 kPa, Gas | 1.01
343.2 K, 120 kPa, Gas | 1.013
343.2 K, 220 kPa, Gas | 1.018
343.2 K, 390 kPa, Gas | 1.027
343.2 K, 430 kPa, Gas | 1.029
343.2 K, 490 kPa, Gas | 1.032
343.2 K, 550 kPa, Gas | 1.035
343.2 K, 610 kPa, Gas | 1.039
343.2 K, 740 kPa, Gas | 1.044
343.2 K, 930 kPa, Gas | 1.059
343.2 K, 1090 kPa, Gas | 1.069
343.2 K, 1240 kPa, Gas | 1.08
343.2 K, 1550 kPa, Gas | 1.106
343.2 K, 1730 kPa, Gas | 1.166
343.2 K, 2600 kPa, Liquid | 4.21
343.2 K, 4000 kPa, Liquid | 4.25
343.2 K, 6000 kPa, Liquid | 4.32
343.2 K, 8200 kPa, Liquid | 4.38
343.2 K, 10200 kPa, Liquid | 4.43
343.2 K, 12200 kPa, Liquid | 4.48
343.2 K, 14400 kPa, Liquid | 4.52
343.2 K, 16300 kPa, Liquid | 4.56
343.2 K, 18000 kPa, Liquid | 4.59
343.2 K, 20200 kPa, Liquid | 4.64
343.2 K, 21900 kPa, Liquid | 4.67
343.2 K, 23400 kPa, Liquid | 4.69
343.2 K, 27700 kPa, Liquid | 4.76
343.2 K, 30400 kPa, Liquid | 4.8
343.2 K, 33200 kPa, Liquid | 4.84
353.1 K, 40 kPa, Gas | 1.01
353.1 K, 100 kPa, Gas | 1.012
353.1 K, 220 kPa, Gas | 1.017
353.1 K, 480 kPa, Gas | 1.03
353.1 K, 530 kPa, Gas | 1.033
353.1 K, 580 kPa, Gas | 1.036
353.1 K, 680 kPa, Gas | 1.041
353.1 K, 780 kPa, Gas | 1.047
353.1 K, 870 kPa, Gas | 1.052
353.1 K, 970 kPa, Gas | 1.058
353.1 K, 1070 kPa, Gas | 1.064
353.1 K, 1180 kPa, Gas | 1.071
353.1 K, 1270 kPa, Gas | 1.078
353.1 K, 1340 kPa, Gas | 1.082
353.1 K, 1440 kPa, Gas | 1.09
353.1 K, 1540 kPa, Gas | 1.098
353.1 K, 1700 kPa, Gas | 1.109
353.1 K, 1890 kPa, Gas | 1.128
353.1 K, 2150 kPa, Gas | 1.178
353.1 K, 2200 kPa, Liquid | 3.92
353.1 K, 4000 kPa, Liquid | 3.98
353.1 K, 6400 kPa, Liquid | 4.07
353.1 K, 8200 kPa, Liquid | 4.13
353.1 K, 10200 kPa, Liquid | 4.19
353.1 K, 12200 kPa, Liquid | 4.24
353.1 K, 14200 kPa, Liquid | 4.29
353.1 K, 16100 kPa, Liquid | 4.33
353.1 K, 18200 kPa, Liquid | 4.38
353.1 K, 20000 kPa, Liquid | 4.42
353.1 K, 21800 kPa, Liquid | 4.45
353.1 K, 24000 kPa, Liquid | 4.49
353.1 K, 25800 kPa, Liquid | 4.52
353.1 K, 27700 kPa, Liquid | 4.55
353.1 K, 29800 kPa, Liquid | 4.58
363.4 K, 850 kPa, Gas | 1.048
363.4 K, 1050 kPa, Gas | 1.059
363.4 K, 1200 kPa, Gas | 1.068
363.4 K, 1410 kPa, Gas | 1.081
363.4 K, 1580 kPa, Gas | 1.092
363.4 K, 1750 kPa, Gas | 1.104
363.4 K, 1890 kPa, Gas | 1.116
363.4 K, 2070 kPa, Gas | 1.131
363.4 K, 2280 kPa, Gas | 1.15
363.4 K, 2800 kPa, Liquid | 3.63
363.4 K, 4200 kPa, Liquid | 3.71
363.4 K, 6200 kPa, Liquid | 3.8
363.4 K, 8000 kPa, Liquid | 3.88
363.4 K, 10200 kPa, Liquid | 3.95
363.4 K, 12200 kPa, Liquid | 4.01
363.4 K, 14200 kPa, Liquid | 4.06
363.4 K, 16000 kPa, Liquid | 4.11
363.4 K, 18000 kPa, Liquid | 4.16
363.4 K, 20000 kPa, Liquid | 4.2
363.4 K, 22000 kPa, Liquid | 4.24
363.4 K, 24000 kPa, Liquid | 4.28
363.4 K, 26000 kPa, Liquid | 4.31
363.4 K, 28000 kPa, Liquid | 4.35
363.4 K, 30500 kPa, Liquid | 4.4
372.9 K, 3400 kPa, Liquid | 3.38
372.9 K, 4200 kPa, Liquid | 3.44
372.9 K, 6100 kPa, Liquid | 3.57
372.9 K, 8300 kPa, Liquid | 3.66
372.9 K, 10200 kPa, Liquid | 3.73
372.9 K, 12200 kPa, Liquid | 3.81
372.9 K, 14400 kPa, Liquid | 3.88
372.9 K, 16200 kPa, Liquid | 3.91
372.9 K, 18300 kPa, Liquid | 3.96
372.9 K, 20000 kPa, Liquid | 4
372.9 K, 22300 kPa, Liquid | 4.05
372.9 K, 24100 kPa, Liquid | 4.09
372.9 K, 26200 kPa, Liquid | 4.14
372.9 K, 27800 kPa, Liquid | 4.16
372.9 K, 29200 kPa, Liquid | 4.18
382.9 K, 4000 kPa, Liquid | 3.08
382.9 K, 6200 kPa, Liquid | 3.31
382.9 K, 8100 kPa, Liquid | 3.43
382.9 K, 10000 kPa, Liquid | 3.53
382.9 K, 12300 kPa, Liquid | 3.62
382.9 K, 14200 kPa, Liquid | 3.68
382.9 K, 16100 kPa, Liquid | 3.74
382.9 K, 18000 kPa, Liquid | 3.79
382.9 K, 20000 kPa, Liquid | 3.84
382.9 K, 22000 kPa, Liquid | 3.89
382.9 K, 24000 kPa, Liquid | 3.93
382.9 K, 26000 kPa, Liquid | 3.97
382.9 K, 27900 kPa, Liquid | 4.01
382.9 K, 30100 kPa, Liquid | 4.05
393 K, 6200 kPa, Liquid | 3.01
393 K, 8400 kPa, Liquid | 3.21
393 K, 10000 kPa, Liquid | 3.3
393 K, 12300 kPa, Liquid | 3.4
393 K, 14200 kPa, Liquid | 3.47
393 K, 16200 kPa, Liquid | 3.54
393 K, 18200 kPa, Liquid | 3.6
393 K, 20000 kPa, Liquid | 3.65
393 K, 22000 kPa, Liquid | 3.7
393 K, 24000 kPa, Liquid | 3.75
393 K, 26000 kPa, Liquid | 3.79
393 K, 27800 kPa, Liquid | 3.83
393 K, 29500 kPa, Liquid | 3.86
402.9 K, 6900 kPa, Fluid (supercritical or subcritical phases) | 2.75
402.9 K, 8600 kPa, Fluid (supercritical or subcritical phases) | 2.96
402.9 K, 10200 kPa, Fluid (supercritical or subcritical phases) | 3.08
402.9 K, 12000 kPa, Fluid (supercritical or subcritical phases) | 3.19
402.9 K, 14200 kPa, Fluid (supercritical or subcritical phases) | 3.28
402.9 K, 16100 kPa, Fluid (supercritical or subcritical phases) | 3.35
402.9 K, 18000 kPa, Fluid (supercritical or subcritical phases) | 3.4
402.9 K, 20000 kPa, Fluid (supercritical or subcritical phases) | 3.47
402.9 K, 21700 kPa, Fluid (supercritical or subcritical phases) | 3.51
402.9 K, 23600 kPa, Fluid (supercritical or subcritical phases) | 3.55
402.9 K, 25800 kPa, Fluid (supercritical or subcritical phases) | 3.61
402.9 K, 27100 kPa, Fluid (supercritical or subcritical phases) | 3.64
402.9 K, 29500 kPa, Fluid (supercritical or subcritical phases) | 3.68

Reference: the NIST ThermoML archive (doi:10.1021/je060283w)
